Data on 80 compounds can be found in the RepoRT retention time repository.

Structures can show the parent of a compound that is named as a salt.

The data set in a line: HILIC, Merck SeQuant ZIC-HILIC, 25 °C, 0.25 mL/min; A: water + 16 mM ammonium formate; B: acetonitrile + 0.1% formic acid, pH 3; gradient (min/%B) 0/97 2/97 10/70 15/10 17/10 18/97 25/97. Particulars: stereoisomer not certain.
`O=C(O)c1cc(O)cc(O)c1` [3-5-Dihydroxybenzoic acid]: the LC retention time amounted to 8.46 min.
The value for `Cn1c(=O)[nH]c(=O)c2c1[nH]c(=O)n2C` [3-7-Dimethyluric acid] was 2.24 min; that for `Nc1cc([O-])cc(C(=O)O)c1` [3-AMINO-5-HYDROXYBENZOATE] was 2.16 min.
The same measure for `Nc1c(O)cccc1C(=O)O` [3-HYDROXYANTHRANILATE]: 2.15 min; for `O=Cc1cccc(O)c1` [3-HYDROXYBENZALDEHYDE]: 1.75 min.
The value for `O=C(O)c1cccc(O)c1` [3-HYDROXYBENZOATE] was 2.15 min; that for `CC(O)(CC(=O)O)CC(=O)O` [3-HYDROXYMETHYLGLUTARATE] was 4.96 min; that for `O=C(O)Cc1cccc(O)c1` [3-HYDROXYPHENYLACETATE] was 2.15 min.
Take `COc1cc(C(O)C(=O)O)ccc1O` (stereo not given) [3-METHOXY-4-HYDROXYMANDELATE]: the LC retention time was found to be 4.88 min.
The value for `COc1cc(CCN)ccc1O` [3-METHOXYTYRAMINE] was 11 min.
Consider `CC1C(=O)Nc2ccccc21` (stereo not given) [3-METHYL-2-OXINDOLE], for which the LC retention time was 1.73 min.
In the case of `CCC(C)C(=O)C(=O)O` (stereo not given) [3-METHYL-2-OXOVALERATE], the LC retention time was found to be 1.73 min.
The value for `CC(C)=CC(=O)SCCNC(=O)CCNC(=O)C(O)C(C)(C)COP(=O)(O)OP(=O)(O)OCC1OC(n2cnc3c(N)ncnc32)C(O)C1OP(=O)(O)O` (stereo not given) [3-METHYLCROTONYL-COA] was 13.4 min.
The same measure for `Cn1cncc1CCN` [3-METHYLHISTAMINE]: 17.2 min; for `CC(CCC(=O)O)CC(=O)O` (stereo not given) [3-Methyladipic acid]: 2.13 min; for `Cc1cccnc1` [3-Methylpyridine (3-Picoline)]: 2.16 min.
The value for `N[C@@H](Cc1ccc(O)c([N+](=O)[O-])c1)C(=O)O` [3-NITRO-L-TYROSINE] was 11.1 min; that for `O=C(O)C(O)COP(=O)(O)O` (stereo not given) [3-PHOSPHOGLYCERATE] was 18.1 min.
Consider `NC(CS(=O)O)C(=O)O` (stereo not given) [3-SULFINOALANINE], for which the LC retention time was 14.4 min.
Turning to `CC(C)C(C(=O)O)C(O)C(=O)O` (stereo not given) [3-isopropylmalic acid], the LC retention time is 2.19 min.
The value for `CC(=O)NCCCC(=O)O` [4-ACETAMIDOBUTANOATE] was 2.87 min; that for `Nc1ccc(C(=O)O)cc1` [4-AMINOBENZOATE] was 2.12 min.
With `N[C@H](C(=O)O)c1ccc(O)cc1` [4-HYDROXY-L-PHENYLGLYCINE], the LC retention time came out at 13.3 min.
For `O=Cc1ccc(O)cc1` [4-HYDROXYBENZALDEHYDE], the LC retention time is 1.77 min.
As for `O=C(O)Cc1ccc(O)cc1` [4-Hydroxyphenylacetic acid], the LC retention time was determined as 2.34 min.
The value for `O=C(O)Cc1cnc[nH]1` [4-IMIDAZOLEACETATE] was 13.6 min; that for `Cc1ccc(O)c(O)c1` [4-METHYLCATECHOL] was 1.84 min; that for `Cc1ncc(CO)c(C(=O)O)c1O` [4-PYRIDOXATE] was 2.22 min.
As for `CC1OC(n2cnc3c(N)ncnc32)C(O)C1O` (stereo not given) [5'-DEOXYADENOSINE], the LC retention time turned out to be 2.24 min.
The value for `NCC(=O)CCC(=O)O` [5-AMINOLEVULINATE] was 13.8 min; that for `NCCCCC(=O)O` [5-AMINOPENTANOATE] was 12.6 min.
The value for `NCC(O)CCC(N)C(=O)O` (stereo not given) [5-HYDROXYLYSINE] was 16.2 min; that for `O=c1[nH]cc(CO)c(=O)[nH]1` [5-HYDROXYMETHYLURACIL] was 8.25 min; that for `Oc1ccc2[nH]ccc2c1` [5-Hydroxyindole] was 2 min.
Regarding `O=C(O)c1cncc(O)c1` [5-Hydroxynicotinic acid], the LC retention time was 6.4 min.
The value for `Cc1cnc(=O)[nH]c1N` [5-METHYLCYTOSINE] was 11.6 min; that for `O=C(O)c1ccc(CO)o1` [5-hydroxymethyl-2-furancarboxylic acid] was 4.31 min; that for `CC(CCC(=O)O)C1CCC2C3CCC4CC(=O)CCC4(C)C3CCC12C` (stereo not given) [5b-cholanic acid-3-ONE] was 1.63 min.
As to `CC(CCC(=O)O)C1CCC2C3C(O)C(O)C4CC(O)CCC4(C)C3CCC12C` (stereo not given) [5b-cholanic acid-3a-6a-7a-TRIOL], the LC retention time turned out to be 2.19 min.
The same measure for `CC(CCC(=O)O)C1CCC2C3C(=O)CC4CC(O)CCC4(C)C3CC(O)C12C` (stereo not given) [5b-cholanic acid-3a-12a-DIOL-7-ONE]: 2.17 min.
Take `CC(CCC(=O)O)C1CCC2C3C(=O)CC4CC(O)CCC4(C)C3CC(=O)C12C` (stereo not given) [5b-cholanic acid-3a-OL-7-12-DIONE]: the LC retention time is 1.92 min.
The value for `CC(CCC(=O)O)C1CCC2C3CCC4CC(O)CCC4(C)C3CC(=O)C12C` (stereo not given) [5b-cholanic acid-3a-OL-12-ONE] was 1.81 min.
For the compound `Nc1ccc(C(=O)O)cn1` [6-Aminopyridine-3-carboxylic acid], the LC retention time came out at 8.01 min.
For `NCCc1cc(O)c(O)cc1O` [6-HYDROXYDOPAMINE], the LC retention time amounted to 12.6 min.
The value for `O=C(O)c1ccc(=O)[nH]c1` [6-HYDROXYNICOTINATE] was 6.01 min.
The same measure for `O=C(O)C(O)C(O)C(O)C(O)COP(=O)(O)O` (stereo not given) [6-PHOSPHOGLUCONATE]: 15.1 min; for `Cn1c[n+](C2OC(CO)C(O)C2O)c2nc(N)[nH]c(=O)c21` (stereo not given) [7-Methylguanosine]: 12.9 min; for `Cn1cnc2[nH]c(=O)[nH]c(=O)c21` [7-Methylxanthine]: 2.21 min.
The same measure for `Cn1cnc2nc(N)[nH]c(=O)c21` [7-methylguanine]: 9.77 min; for `O=C(O)CCCCCCCCCO` [10-HYDROXYDECANOATE]: 1.75 min; for `CCCCCCCCCCCCCC(=O)OCC(O)COP(=O)([O-])OCC[N+](C)(C)C` (stereo not given) [14-0_LysoPC]: 11.3 min.
Take `CCCCCCCCCCCCCC(=O)OC(CO)COP(=O)(O)OCCN` (stereo not given) [14-0_LysoPE]: the LC retention time turned out to be 10.3 min.
The value for `CCCCCCCCCCCCCCCC(=O)OCC(O)COP(=O)([O-])OCC[N+](C)(C)C` (stereo not given) [16-0_LysoPC] was 11.2 min; that for `CCCCCCCCCCCCCCCC(=O)OCC(O)COP(=O)(O)OCCN` (stereo not given) [16-0_LysoPE] was 10.2 min; that for `CCCCCCCCCCCCCCCC(=O)OCC(O)COP(=O)(O)O` (stereo not given) [16:0_LysoPA] was 9.22 min.
The same measure for `C#CC1(O)CCC2C3CCc4cc(O)ccc4C3CCC21C` (stereo not given) [17a-Ethynylestradiol]: 1.68 min; for `CC(=O)C1(O)CCC2C3CC=C4CC(O)CCC4(C)C3CCC21C` (stereo not given) [17a-Hydroxypregnenolone_H2]: 2.17 min; for `CC(=O)C1(O)CCC2C3CCC4=CC(=O)CCC4(C)C3CCC21C` (stereo not given) [17a-Hydroxyprogesterone]: 1.61 min.
As to `CCCCCCCCCCCCCCCCCC(=O)OCC(O)COP(=O)([O-])OCC[N+](C)(C)C` (stereo not given) [18-0_LysoPC], the LC retention time worked out at 11.2 min.
`CCCCCCCCCCCCCCCCCC(=O)OCC(O)COP(=O)(O)OCCN` (stereo not given) [18-0_LysoPE]: the LC retention time is 10.2 min.
The same measure for `CCCCCCCCC=CCCCCCCCC(=O)OCC(O)COP(=O)(O)O` (stereo not given) [18-1_LysoPA]: 9.21 min; for `CCCCCCCCC=CCCCCCCCC(=O)OCC(O)COP(=O)([O-])OCC[N+](C)(C)C` (stereo not given) [18-1_LysoPC]: 11.2 min.
The value for `CCCCCCCCC=CCCCCCCCC(=O)OCC(O)COP(=O)(O)OCCN` (stereo not given) [18-1_LysoPE] was 10.3 min; that for `CC(=O)C1(O)CCC2C3CCC4=CC(=O)CCC4(C)C3C(O)CC21C` (stereo not given) [21-Deoxycortisol] was 1.68 min; that for `CC(CCCC(C)(C)O)C1CCC2C3CC=C4CC(O)CCC4(C)C3CCC12C` (stereo not given) [25-HYDROXYCHOLESTEROL] was 1.6 min.
The same measure for `NCCP(=O)(O)O` [(2-AMINOETHYL)PHOSPHONATE]: 15 min; for `C=C(C)C1CC=C(C)C(=O)C1` [(R)-(-)-Carvone]: 1.55 min.
On to `C[C@H](O)CC(=O)O` [(S)-3-Hydroxybutyric acid], for which the LC retention time was 2.16 min.
The value for `CC(=O)CC(=O)[O-]` [ACETOACETATE] was 1.91 min; that for `CC(=O)C(C)O` (stereo not given) [ACETOIN] was 2.12 min.
The value for `CC(=O)OCC[N+](C)(C)C` [ACETYLCHOLINE+C2H2O4] was 10 min.
The same measure for `Nc1ncnc2c1ncn2C1OC(CO)C2OP(=O)(O)OC21` (stereo not given) [ADENOSINE 2'-3'-CYCLIC PHOSPHATE]: 11.4 min.
For `Nc1ncnc2c1ncn2C1OC(COP(=O)(O)O)C(OP(=O)(O)O)C1O` (stereo not given) [ADENOSINE 3'-5'-DIPHOSPHATE], the LC retention time amounted to 14.9 min.
The same measure for `Nc1ncnc2c1ncn2C1OC(COP(=O)(O)OP(=O)(O)O)C(O)C1O` (stereo not given) [ADENOSINE 5'-DIPHOSPHATE]: 14.7 min; for `Nc1ncnc2c1ncn2C1OC(COP(=O)(O)OP(=O)(O)OCC2OC(O)C(O)C2O)C(O)C1O` (stereo not given) [ADENOSINE DIPHOSPHATE RIBOSE]: 14.6 min.
The same measure for `Nc1ncnc2c1ncn2C1OC(COP(=O)(O)OP(=O)(O)OP(=O)(O)O)C(O)C1O` (stereo not given) [ADENOSINE TRIPHOSPHATE]: 15.5 min.
The value for `Nc1ncnc2c1ncn2C1OC(COP(=O)(O)O)C(O)C1O` (stereo not given) [ADENOSINE-MONOPHOSPHATE] was 13.6 min; that for `Nc1ncnc2c1ncn2C1OC(CO)C(O)C1O` (stereo not given) [ADENOSINE] was 8.64 min.
As to `Nc1ncnc2c1ncn2C1OC(COP(=O)(O)OP(=O)(O)OC2OC(CO)C(O)C(O)C2O)C(O)C1O` (stereo not given) [ADP-GLUCOSE], the LC retention time was found to be 14.7 min.
The same measure for `NCCCCN=C(N)N` [AGMATINE SULFATE]: 17.2 min.
